Laboratory results published in paper PMC7495481, “Sequence specificity analysis of the SETD2 protein lysine methyltransferase and discovery of a SETD2 super-substrate” (Communications Biology, 2020).

Key:
Assay type in all cases: biochemical
[1] = biological target: T1, SETD2 (Homo sapiens, UniProt Q9BYW2); test: Peptide SPOT array methylation of H3K36 (29–43) variants, super-substrate design (Fig. 2a)
T1 construct: SETD2 catalytic SET domain (amino acids 1347–1711, UniProt No: Q9BYW2); made in house; host or cells: E. coli
T1 sequence (Q9BYW2 1347-1711): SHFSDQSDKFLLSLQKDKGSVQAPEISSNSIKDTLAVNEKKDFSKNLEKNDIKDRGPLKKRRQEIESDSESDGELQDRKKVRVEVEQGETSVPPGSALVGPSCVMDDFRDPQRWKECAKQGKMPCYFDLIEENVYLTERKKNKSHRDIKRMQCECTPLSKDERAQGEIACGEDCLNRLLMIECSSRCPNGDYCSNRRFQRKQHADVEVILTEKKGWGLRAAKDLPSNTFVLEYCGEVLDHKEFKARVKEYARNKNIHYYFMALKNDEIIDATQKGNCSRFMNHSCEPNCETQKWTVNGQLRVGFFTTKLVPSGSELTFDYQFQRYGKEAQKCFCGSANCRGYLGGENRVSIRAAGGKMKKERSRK
Description: Based on these observations, we aimed to explore, if better substrates than H3K36 can be designed for SETD2. We synthesized peptide SPOT arrays including H3K36 (29–43) as a positive control and the H3K36A mutant as a negative control, in which up to 5 combined mutations were systematically introduced that converted the original H3K36 residues into residues that are more favored (Fig. 2a and Supplementary Table 1). This peptide array was methylated by SETD2 as described above and the methylation signal was captured by autoradiography.
Fig. 2 Design of an optimized SETD2 peptide substrate and analysis of its methylation. a Variants of the H3K36 (29–43) peptide containing up to five mutations (Supplementary Table 1) were synthesized on a cellulose membrane and methylated by SETD2. The signal of the transferred radioactive methyl groups was detected by autoradiography. Spots A1 and B15 contain the H3K36 sequence, A2 and B16 the H3K36A peptide. Two films with different exposure times are shown to visualize weaker methylated spots as well. b Comparison of the methylation of purified super-substrate (ssK36) and the H3K36 peptides. […] Methylation reactions were conducted using 20 µM peptide and 6 µM enzyme. The lower panels display autoradiography films after different exposure times allowing to compare the methylation levels of the different samples. For comparison, different dilutions of the methylated ssK36 were loaded as indicated. c Time course of ssK36 peptide methylation determined under single turnover conditions using 5 µM substrate and 6 µM enzyme. […] The gels with the radioactive ssK36 (5 µl loaded per well) and H3K36 peptides (20 µl loaded per well) were exposed together to the same x-ray film. […] An enlargement of the H3K36 data with adjusted y-axis scale is shown in Supplementary Fig. 3d.
Peptide arrays containing fifteen amino acid long peptides were synthesized using the SPOT synthesis method[48] with an Autospot peptide array synthesizer (Intavis AG, Köln, Germany). After synthesis, the obtained membranes were pre-incubated in methylation buffer (20 mM Tris/HCl pH 9, 0.01% Triton X-100, 10 mM DTT, 1.5 mM MgCl2) for 5 min on a shaker. Thereafter, the membranes were incubated in methylation buffer supplemented with 0.76 µM radioactively labeled AdoMet (PerkinElmer) and 3–6 µM SETD2 enzyme for 60 min on a shaker. After methylation, the membranes were washed 5 times for 5 min in wash buffer (100 mM NH4HCO3, 1% SDS) and incubated in amplify NAMP100V (GE Healthcare) for 5 min. This was followed by the exposure of the membranes to a hyperfilm^TM high performance autoradiography (GE Healthcare) film at −80 °C in the dark. The films were developed with an Optimax Typ TR machine after different exposue times. For quantification the signal intensities were measured with the Phoretix^TM software and analyzed with Microsoft Excel.

[2] = test system: NSD1; test: Peptide methylation by NSD1; conditions: peer review file
Description: (§1) We, therefore, repeated the peptide array used for the development of the SETD2 super-substrate, which is shown in Figure 2A of our manuscript for NSD1 and NSD2. […]
(§2) that this mutation specifically increases the activity of these two enzymes. In contrast, with […]
(§3) combined with H39N/K. Importantly, in case of SETD2 H39N only has an effect in the context of the other mutations in ssK36. We conclude that the ssK36 substrate is specifically optimized for SETD2 as expected given the workflow of our experiments. The finding that H39N increases the activity of NSD1 and NSD2 is interesting and deserves additional work. It […]
(§4) conducted with NSD1 and NSD2. The SETD2 panel is taken from the manuscript for comparison. The table indicates the peptide compositions. Note, the gradual increase of methylation with increasing number of mutations in the case of SETD2. In case of NSD1 and NSD2, increased methylation is solely due to the H39N mutation , which has a weaker […]

[3] = biological target: T1, SETD2; test: Steady-state peptide methylation kinetics (Michaelis-Menten); conditions: 20–320 µM peptide; Michaelis-Menten fit; two independent experiments
Experimental: To further characterize the methylation kinetics of the super-substrate peptide, steady-state methylation experiments were performed using the super-substrate peptide in different concentrations ranging from 20 to 320 µM (Supplementary Fig. 3a). […] To further study the difference in peptide binding, inhibition of SETD2 by ssK36M and H3K36M inhibitor peptides was investigated (Supplementary Fig. 3b and c).
The H3K36 (27–43) and the H3K36M (27–43) peptides were purchased from Intavis AG (Köln, Germany) and the ssK36 peptide (29–43) and the ssK36M peptide (29–43) were from Innovative Peptide Solutions (Berlin, Germany). If not indicated otherwise, peptide methylation reactions were performed using 20 µM peptide and 6 µM SETD2 in 20 µl methylation buffer supplemented with 0.76 µM radioactive labeled AdoMet (PerkinElmer) for 3 h at 25 °C. The reactions were halted by the addition of Tricine-SDS-PAGE loading buffer and incubation for 5 min at 95 °C. […] The signals of the transferred radioactive labeled methyl groups were detected by autoradiography using a hyperfilm^TM high performance autoradiography film (GE Healthcare) at −80 °C in the dark. […]
Multiple turnover kinetics were determined using variable peptide concentrations (20–320 µM). […]

[4] = test system: NSD2; test: Peptide methylation by NSD2; conditions: peer review file
Description: as §1, §2, §3, §4

APRFGGVKRPNRYRP [ssK36, super-substrate peptide with four amino acid exchanges (A31R, T32F, K37R, H39N)]
peptide array methylation of H3K36 variants (in words) ([1]; SPOT array, 0.76 µM radioactive AdoMet, 3–6 µM SETD2, 60 min, pH 9, autoradiography): one of the most strongly methylated peptides
fold stronger methylation of ssK36 than H3K36 ([1]; densitometric analysis of 5 pairs of H3K36 and ssK36 spots on independent arrays, ± SD): 70 ± 10 fold
methylation by NSD1 [2]: better substrate than H3K36
Km [3]: 45 µM
methylation by NSD2 [4]: better substrate than H3K36
